# Experimental data: PubChem BioAssay (NCI)
# “And” between values parts separate entries of the source, which are not always exact repeats. Equal values may be shown once.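 How tested: cells in 96-well plates exposed to compound for 48 hours at five concentrations. The concentration for 50% growth inhibition is given as GI50. TGI marks complete inhibition of growth.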
# Legend:
# Assay in all cases: inhibition of tumour cell growth, NCI panel, 48 h
# HL-60(TB) leukemia = test system: HL-60(TB) leukemia
# UACC-62 melanoma = test system: UACC-62 melanoma
# SF-295 CNS = test system: SF-295 CNS
# UACC-257 melanoma = test system: UACC-257 melanoma
# A549 NSCLC = test system: A549 NSCLC
# KM12 colon = test system: KM12 colon
# TK-10 renal = test system: TK-10 renal
# SN12C renal = test system: SN12C renal
# HOP-92 NSCLC = test system: HOP-92 NSCLC
# NCI/ADR-RES ovarian = test system: NCI/ADR-RES ovarian
# M14 melanoma = test system: M14 melanoma
# PC-3 prostate = test system: PC-3 prostate
# IGROV1 ovarian = test system: IGROV1 ovarian
# SNB-19 CNS = test system: SNB-19 CNS
# SW-620 colon = test system: SW-620 colon
# SK-OV-3 ovarian = test system: SK-OV-3 ovarian
# HCC-2998 colon = test system: HCC-2998 colon
# OVCAR-8 ovarian = test system: OVCAR-8 ovarian
# SF-268 CNS = test system: SF-268 CNS
# SK-MEL-2 melanoma = test system: SK-MEL-2 melanoma
# EKVX NSCLC = test system: EKVX NSCLC
# MCF7 breast = test system: MCF7 breast
# OVCAR-4 ovarian = test system: OVCAR-4 ovarian
# MOLT-4 leukemia = test system: MOLT-4 leukemia
# K-562 leukemia = test system: K-562 leukemia
# NCI-H226 lung = test system: NCI-H226 lung
# HS 578T breast = test system: HS 578T breast
# MDA-MB-435 = test system: MDA-MB-435
# HCT-15 colon = test system: HCT-15 colon
# CAKI-1 renal = test system: CAKI-1 renal
# DU-145 prostate = test system: DU-145 prostate
# 786-0 renal = test system: 786-0 renal
# MDA-MB-231 breast = test system: MDA-MB-231 breast
# COLO 205 colon = test system: COLO 205 colon
# A498 renal = test system: A498 renal
# NCI-H522 lung = test system: NCI-H522 lung
# OVCAR-3 ovarian = test system: OVCAR-3 ovarian
# SK-MEL-28 melanoma = test system: SK-MEL-28 melanoma
# MDA-N = test system: MDA-N
# HOP-62 NSCLC = test system: HOP-62 NSCLC
# SR leukemia = test system: SR leukemia
# LOX IMVI melanoma = test system: LOX IMVI melanoma
# SNB-75 CNS = test system: SNB-75 CNS
# U251 CNS = test system: U251 CNS
# UO-31 renal = test system: UO-31 renal
# RXF 393 renal = test system: RXF 393 renal
# MALME-3M melanoma = test system: MALME-3M melanoma
# NCI-H23 lung = test system: NCI-H23 lung
# HCT-116 colon = test system: HCT-116 colon
# OVCAR-5 ovarian = test system: OVCAR-5 ovarian
# ACHN renal = test system: ACHN renal
# HT29 colon = test system: HT29 colon
# RPMI-8226 leukemia = test system: RPMI-8226 leukemia
# CCRF-CEM leukemia = test system: CCRF-CEM leukemia
# SK-MEL-5 melanoma = test system: SK-MEL-5 melanoma
# NCI-H460 lung = test system: NCI-H460 lung
# SF-539 CNS = test system: SF-539 CNS
# T-47D breast = test system: T-47D breast
smiles,measurement,setting,value
C[n+]1c(-c2ccccc2)cc2/c(=C\c3ccccc3)c3ccccc3n21,TGI,HL-60(TB) leukemia,0.302 µM
same,TGI,UACC-62 melanoma,3.24 µM
same,TGI,SF-295 CNS,76 µM
same,TGI,UACC-257 melanoma,3.98 µM
same,TGI,A549 NSCLC,> 36.3 µM
same,TGI,KM12 colon,2.18 µM
same,TGI,TK-10 renal,14.2 µM
same,TGI,SN12C renal,3.32 µM
same,TGI,HOP-92 NSCLC,4.93 µM
same,TGI,NCI/ADR-RES ovarian,71.1 µM
same,TGI,M14 melanoma,4.19 µM
same,TGI,PC-3 prostate,3.69 µM
same,TGI,IGROV1 ovarian,2.64 µM
same,TGI,SNB-19 CNS,24 µM
same,TGI,SW-620 colon,3.47 µM
same,TGI,SK-OV-3 ovarian,17.4 µM
same,TGI,HCC-2998 colon,14.2 µM
same,TGI,OVCAR-8 ovarian,4.19 µM
same,TGI,SF-268 CNS,2.92 µM
same,TGI,SK-MEL-2 melanoma,2.26 µM
same,TGI,EKVX NSCLC,9.64 µM
same,TGI,MCF7 breast,> 32.2 µM
same,TGI,OVCAR-4 ovarian,17.2 µM
same,TGI,MOLT-4 leukemia,7.78 µM
same,TGI,K-562 leukemia,> 100 µM
same,TGI,NCI-H226 lung,2.01 µM
same,TGI,HS 578T breast,0.576 µM
same,TGI,MDA-MB-435,2.45 µM
same,TGI,HCT-15 colon,11.5 µM
same,TGI,CAKI-1 renal,11.4 µM
same,TGI,DU-145 prostate,10.6 µM
same,TGI,786-0 renal,2.77 µM
same,TGI,MDA-MB-231 breast,3.55 µM
same,TGI,COLO 205 colon,1.8 µM
same,TGI,A498 renal,23.1 µM
same,TGI,NCI-H522 lung,2.01 µM
same,TGI,OVCAR-3 ovarian,3.04 µM
same,TGI,SK-MEL-28 melanoma,2.73 µM
same,TGI,MDA-N,3.42 µM
same,TGI,HOP-62 NSCLC,6.9 µM
same,TGI,SR leukemia,> 21.4 µM
same,TGI,LOX IMVI melanoma,2.88 µM
same,TGI,SNB-75 CNS,2.05 µM
same,TGI,U251 CNS,1.67 µM
same,TGI,UO-31 renal,7.81 µM
same,TGI,RXF 393 renal,4.07 µM
same,TGI,MALME-3M melanoma,2.93 µM
same,TGI,NCI-H23 lung,7.2 µM
same,TGI,HCT-116 colon,4.91 µM
same,TGI,OVCAR-5 ovarian,13.4 µM
same,TGI,ACHN renal,11.8 µM
same,TGI,HT29 colon,3.22 µM
same,TGI,RPMI-8226 leukemia,> 100 µM
c1ccc(-c2cc(-c3cccs3)c(-c3cccs3)s2)cc1,TGI,HL-60(TB) leukemia,88.5 µM
same,TGI,UACC-62 melanoma,> 100 µM
same,TGI,SF-295 CNS,> 100 µM
same,TGI,UACC-257 melanoma,> 100 µM
same,TGI,KM12 colon,32.9 µM
same,TGI,CCRF-CEM leukemia,57.9 µM
same,TGI,TK-10 renal,> 100 µM
same,TGI,SN12C renal,> 100 µM
same,TGI,SK-MEL-5 melanoma,> 100 µM
same,TGI,HOP-92 NSCLC,> 100 µM
same,TGI,NCI/ADR-RES ovarian,> 100 µM
same,TGI,M14 melanoma,54.5 µM
same,TGI,IGROV1 ovarian,> 100 µM
same,TGI,SW-620 colon,> 100 µM
same,TGI,SK-OV-3 ovarian,> 100 µM
same,TGI,HCC-2998 colon,67.8 µM
same,TGI,OVCAR-8 ovarian,> 100 µM
same,TGI,SF-268 CNS,> 100 µM
same,TGI,EKVX NSCLC,> 100 µM
same,TGI,MCF7 breast,41 µM
same,TGI,OVCAR-4 ovarian,62.6 µM
same,TGI,MOLT-4 leukemia,63.1 µM
same,TGI,NCI-H226 lung,> 100 µM
same,TGI,HS 578T breast,> 100 µM
same,TGI,MDA-MB-435,75.5 µM
same,TGI,HCT-15 colon,70.1 µM
same,TGI,CAKI-1 renal,> 100 µM
same,TGI,NCI-H460 lung,> 100 µM
same,TGI,DU-145 prostate,> 100 µM
same,TGI,786-0 renal,> 100 µM
same,TGI,MDA-MB-231 breast,> 100 µM
same,TGI,COLO 205 colon,> 100 µM
same,TGI,A498 renal,> 100 µM
same,TGI,SF-539 CNS,> 100 µM
same,TGI,T-47D breast,58.4 µM
same,TGI,NCI-H522 lung,64.8 µM
same,TGI,OVCAR-3 ovarian,> 100 µM
same,TGI,MDA-N,> 100 µM
same,TGI,HOP-62 NSCLC,> 100 µM
same,TGI,SR leukemia,52.3 µM
same,TGI,SNB-75 CNS,> 100 µM
same,TGI,U251 CNS,> 100 µM
same,TGI,UO-31 renal,72.3 µM
same,TGI,RXF 393 renal,47.3 µM
same,TGI,NCI-H23 lung,60.2 µM
same,TGI,HCT-116 colon,> 100 µM
same,TGI,OVCAR-5 ovarian,> 100 µM
same,TGI,ACHN renal,> 100 µM
same,TGI,HT29 colon,> 100 µM
same,TGI,RPMI-8226 leukemia,79 µM
CC(=O)OCC1OC(Sc2nc(-c3ccc(Cl)cc3)c(C#N)c(=O)n2C2OC(COC(C)=O)C(OC(C)=O)C(OC(C)=O)C2OC(C)=O)C(OC(C)=O)C(OC(C)=O)C1OC(C)=O (configuration not stated),TGI,HL-60(TB) leukemia,8.82 µM
same,TGI,UACC-257 melanoma,> 100 µM and 10.8 µM
same,TGI,A549 NSCLC,> 100 µM
same,TGI,KM12 colon,> 100 µM and 31 µM
same,GI50,TK-10 renal,> 100 µM and 20.2 µM
same,TGI,TK-10 renal,> 100 µM and 47.8 µM
same,TGI,SK-MEL-5 melanoma,> 100 µM and 12.8 µM
same,GI50,HOP-92 NSCLC,2.13 µM
same,TGI,HOP-92 NSCLC,9.15 µM
same,GI50,NCI/ADR-RES ovarian,> 100 µM and 10.2 µM
same,TGI,NCI/ADR-RES ovarian,> 100 µM
same,TGI,M14 melanoma,> 100 µM
same,TGI,PC-3 prostate,> 100 µM and 24.4 µM
same,TGI,IGROV1 ovarian,> 100 µM and 33.5 µM
same,GI50,SNB-19 CNS,> 100 µM and 10.7 µM
same,TGI,SNB-19 CNS,> 100 µM and 23.1 µM
same,TGI,SW-620 colon,> 100 µM
same,TGI,SK-OV-3 ovarian,> 100 µM and 11.2 µM
same,GI50,OVCAR-8 ovarian,> 100 µM and 17.2 µM
same,TGI,OVCAR-8 ovarian,> 100 µM
same,GI50,SK-MEL-2 melanoma,> 100 µM and 17.4 µM
same,TGI,SK-MEL-2 melanoma,> 100 µM
same,TGI,EKVX NSCLC,> 100 µM
same,TGI,MCF7 breast,> 100 µM and 15.4 µM
same,TGI,OVCAR-4 ovarian,12.1 µM
same,TGI,MOLT-4 leukemia,> 100 µM
same,GI50,K-562 leukemia,36.6 µM
same,TGI,K-562 leukemia,> 100 µM
same,TGI,NCI-H226 lung,> 100 µM and 12.1 µM
same,TGI,HS 578T breast,> 100 µM and 34.3 µM
same,TGI,MDA-MB-435,> 100 µM and 19.7 µM
same,TGI,HCT-15 colon,> 100 µM and 13.6 µM
same,TGI,DU-145 prostate,> 100 µM and 25.3 µM
same,TGI,COLO 205 colon,> 100 µM and 19.3 µM
same,GI50,T-47D breast,89.8 µM and 17.7 µM
same,TGI,T-47D breast,> 100 µM
same,TGI,OVCAR-3 ovarian,> 100 µM and 24.8 µM
same,TGI,MDA-N,> 100 µM and 13.2 µM
same,TGI,HOP-62 NSCLC,> 100 µM and 18.5 µM
same,TGI,SR leukemia,99.8 µM
same,GI50,LOX IMVI melanoma,26.9 µM and 8.49 µM
same,TGI,LOX IMVI melanoma,> 100 µM
same,TGI,U251 CNS,> 100 µM
same,GI50,UO-31 renal,27.7 µM and 55.9 µM
same,TGI,UO-31 renal,> 100 µM
same,TGI,NCI-H23 lung,> 100 µM and 20 µM
same,TGI,HCT-116 colon,> 100 µM
same,TGI,OVCAR-5 ovarian,> 100 µM and 21.9 µM
same,TGI,RPMI-8226 leukemia,> 100 µM
